The conditions of this data set: mouse, in vivo. On the procedure:
In vivo toxicity of the polymer of Formula II was assayed in mice. Groups of 5 animals were dosed twice daily for 5 days by oral gavage at a dose of 10, 100, or 500 mg/kg body weight. Animals were assessed daily, and deaths were recorded. The dose at which ½ the animals died was considered the LD50.

Like-named read-outs stand apart in the source and are kept apart here.

For the substance “Poly(4,4′-trimethylenebis(1-methylpiperidinium)-alt-1,8-octane) [Formula II]”, the “tolerability in 5-day oral toxicity study” value is “well tolerated” (10 mg/kg/day) and “moderate toxicity was evident” (100 mg/kg/day).
